The values below come from patent US7205304B2, “Sulfonyl-Derivatives as novel inhibitors of histone deacetylase” (Janssen Pharmaceutica N.V., priority 2002, dated 2007).

Values after ≈ are worked out from the molar mass of the structure shown.

Series [1] has as its system A2780 ovarian carcinoma cells. Put plainly: Antiproliferative activity on A2780 cells (MTT). Particulars: four days of incubation; for IC50: Homo sapiens, A2780, 96 h, read-out: Cellular activity pIC50 (converted). It is filed as cell-based, human. The protocol:
Cellular activity of the compounds of formula (I) was determined on A2780 tumour cells using a colorimetric assay for cell toxicity or survival (Mosmann Tim, Journal of Immunological Methods 65: 55–63, 1983)(see example C.2).
All compounds tested were dissolved in DMSO and further dilutions were made in culture medium. Final DMSO concentrations never exceeded 0.1% (v/v) in cell proliferation assays. Controls contained A2780 cells and DMSO without compound and blanks contained DMSO but no cells. MTT was dissolved at 5 mg/ml in PBS. A glycine buffer comprised of 0.1 M glycine and 0.1 M NaCl buffered to pH 10.5 with NaOH (1 N) was prepared (all reagents were from Merck).
The human A2780 ovarian carcinoma cells (a kind gift from Dr. T. C. Hamilton [Fox Chase Cancer Centre, Pennsylvania, USA]) were cultured in RPMI 1640 medium supplemented with 2 mM L-glutamine, 50 μg/ml gentamicin and 10% fetal calf serum. Cells were routinely kept as monolayer cultures at 37° C. in a humidified 5% CO2 atmosphere. Cells were passaged once a week using a trypsin/EDTA solution at a split ratio of 1:40. All media and supplements were obtained from Life Technologies. Cells were free of mycoplasma contamination as determined using the Gen-Probe Mycoplasma Tissue Culture kit (supplier: BioMérieux).
Cells were seeded in NUNC™ 96-well culture plates (Supplier: Life Technologies) and allowed to adhere to the plastic overnight. Densities used for plating were 1500 cells per well in a total volume of 200 μl medium. After cell adhesion to the plates, medium was changed and drugs and/or solvents were added to a final volume of 200 μl. Following four days of incubation, medium was replaced by 200 μl fresh medium and cell density and viability was assessed using an MTT-based assay. To each well, 25 μl MTT solution was added and the cells were further incubated for 2 hours at 37° C. The medium was then carefully aspirated and the blue MTT-formazan product was solubilized by addition of 25 μl glycine buffer followed by 100 μl of DMSO. […] Within an experiment, the results for each experimental condition are the mean of 3 replicate wells. For initial screening purposes, compounds were tested at a single fixed concentration of 10^−6 M. For active compounds, the experiments were repeated to establish full concentration-response curves. For each experiment, controls (containing no drug) and a blank incubation (containing no cells or drugs) were run in parallel. The blank value was subtracted from all control and sample values. For each sample, the mean value for cell growth (in absorbance units) was expressed as a percentage of the mean value for cell growth of the control. […] Herein the effects of test compounds are expressed as pIC50 (the negative log value of the IC50-value).

For series [2], the target named is histone deacetylase (HeLa nuclear extracts). Put plainly: In vitro assay for inhibition of histone deacetylase. Particulars: [3H]acetylated histone H4 peptide substrate. It is filed as biochemical. The protocol:
The in vitro assay for inhibition of histone deacetylase (see example C.1) measures the inhibition of HDAC enzymatic activity obtained with the compounds of formula (I).
HeLa nuclear extracts (supplier: Biomol) were incubated at 60 μg/ml with 2×10^−8 M of radiolabeled peptide substrate. As a substrate for measuring HDAC activity a synthetic peptide, i.e. the amino acids 14–21 of histone H4, was used. The substrate is biotinylated at the NH2-terminal part with a 6-aminohexanoic acid spacer, and is protected at the COOH-terminal part by an amide group and specifically [^3H]acetylated at lysine 16. The substrate, biotin-(6-aminohexanoic)Gly-Ala-([^3H]-acetyl-Lys-Arg-His-Arg-Lys-Val-NH2), was added in a buffer containing 25 mM Hepes, 1 M sucrose, 0.1 mg/ml BSA and 0.01% Triton X-100 at pH 7.4. After 30 min the deacetylation reaction was terminated by the addition of HCl and acetic acid. (final concentration 0.035 mM and 3.8 mM respectively). After stopping the reaction, the free ^3H-acetate was extracted with ethylacetate. After mixing and centrifugation, the radioactivity in an aliquot of the upper (organic) phase was counted in a β-counter.
For each experiment, controls (containing HeLa nuclear extract and DMSO without compound), a blank incubation (containing DMSO but no HeLa nuclear extract or compound) and samples (containing compound dissolved in DMSO and HeLa nuclear extract) were run in parallel. In first instance, compounds were tested at a concentration of 10^−5M. […] In each test the blank value was substracted from both the control and the sample values. The control sample represented 100% of substrate deactylation. For each sample the radioactivity was expressed as a percentage of the mean value of the controls. […] Herein the effects of test compounds are expressed as pIC50 (the negative log value of the IC50-value).

Series [3] is described as follows: Kinetic solubility in aqueous media (nephelometry). Particulars: phosphate citrate buffer, pH 7.4, aqueous buffer, kinetic from dmso stock, phosphate citrate buffer pH 7.4, turbidity of three dilution steps; read-out: Solubility Score. It is filed as physicochemical. How it is done: Kinetic solubility in aqueous media measures the ability of a compound to stay in aqueous solution upon dilution (see example C.3).
DMSO-stock solutions are diluted with a single aqueous buffer solvent in 3 consecutive steps. For every dilution turbidity is measured with a nephelometer.
In the first dilution step, 10 μl of a concentrated stock-solution of the active compound, solubilized in DMSO (5 mM), was added to 100 μl phosphate citrate buffer pH 7.4 and mixed. In the second dilution step, an aliquot (20 μl) of the first dilution step was further dispensed in 100 μl phosphate citrate buffer pH 7.4 and mixed. Finally, in the third dilution step, a sample (20 μl) of the second dilution step was further diluted in 100 μl phosphate citrate buffer pH 7.4 and mixed. All dilutions were performed in 96-well plates. Immediately after the last dilution step the turbidity of the three consecutive dilution steps were measured with a nephelometer. Dilution was done in triplicate for each compound to exclude occasional errors. Based on the turbidity measurements a ranking is performed into 3 classes. Compounds with high solubility obtained a score of 3 and for this compounds the first dilution is clear. Compounds with medium solubility obtained a score of 2. For these compounds the first dilution is unclear and the second dilution is clear. […] The solubility of 112 compounds was measured.

Turning to `O=C(NO)c1ccc(N2CCCN(S(=O)(=O)c3ccc4ccccc4c3)CC2)cc1` [Compound 1], the IC50 in series [1] is more than 10000 nM. Besides, in series [2], the “Enzyme activity pIC50” value came out at 6.482.
For orientation: solubility means how much of the substance goes into solution per volume. Take `O=C(NO)c1ccc(N2CCN(S(=O)(=O)c3ccc4ccccc4c3)CC2)cc1` [Compound 2]: the IC50 in series [1] was 1940 nM. Further, in series [2], the “Enzyme activity pIC50” value is on record as 7.147. Moreover, the solubility in series [3] was less than 75.8 µM.
Regarding `O=C(NO)c1cccc(CN2CCN(S(=O)(=O)c3ccc4ccccc4c3)CC2)c1` [Compound 7], in series [2], the “Enzyme activity pIC50” value is listed as less than 5.
In the case of `O=C(NO)c1ccc(NC(=O)N2CCN(S(=O)(=O)c3ccc4ccccc4c3)CC2)cc1` [Compound 8], the IC50 in series [1] was 2280 nM. The “Enzyme activity pIC50” value in series [2] turned out to be 7.587. The solubility in series [3] was more than 454 µM.
With `O=C(NO)c1cnc(N2CCN(S(=O)(=O)N3CCOCC3)CC2)nc1` [Compound 14], the IC50 in series [1] is 5790 nM. Besides, the “Enzyme activity pIC50” value in series [2] worked out at 6.621. The solubility in series [3] was more than 454 µM.
On to `COc1cccc(-c2ccc(S(=O)(=O)N3CCN(c4ncc(C(=O)NO)cn4)CC3)cc2)c1` [Compound 15], for which the IC50 in series [1] is 107 nM. Further, the “Enzyme activity pIC50” value in series [2] came out at 7.332. In series [3], the solubility was 75.8 to 454 µM (≈ 35.6 to 213 µg/mL).
With `O=C(NCCO)c1ccc(N2CCN(S(=O)(=O)c3ccc4ccccc4c3)CC2)cc1` [Compound 16], in series [1], the IC50 was more than 10000 nM. In addition, the “Enzyme activity pIC50” value in series [2] is given as less than 5.
With `O=C(NO)c1cc([N+](=O)[O-])ccc1N1CCN(S(=O)(=O)c2ccc(Cl)s2)CC1` [Compound 22], the “Enzyme activity pIC50” value in series [2] is given as less than 5.
`O=C(NO)c1ccc(N2CCN(S(=O)(=O)c3cc(C(F)(F)F)cc(C(F)(F)F)c3)CC2)cc1` [Compound 75]: in series [1], the IC50 was 6870 nM. For the same molecule, the “Enzyme activity pIC50” value in series [2] is reported as less than 5.
Taken in the same sequence, the figures for `COc1ccc(OC)c(S(=O)(=O)N2CCN(c3ccc(C(=O)NO)cc3)CC2)c1` [Compound 77] were 7100 nM and 5.937.
On the same counts, the results for `O=C1CCC(C(=O)Nc2ccc(N3CCN(S(=O)(=O)c4ccc5ccccc5c4)CC3)cc2)N1` (stereo not shown) [Compound 84] are more than 10000 nM and less than 5.
On the same counts, the results for `Cc1cnc(C(=O)Nc2ccc(N3CCN(S(=O)(=O)c4ccc5ccccc5c4)CC3)cc2)cn1` [Compound 85] are more than 10000 nM and less than 5.
For `O=C(Nc1ccc(N2CCN(S(=O)(=O)c3ccc4ccccc4c3)CC2)cc1)c1ccc(=O)[nH]c1` [Compound 86], the IC50 in series [1] was more than 10000 nM. Further, in series [2], the “Enzyme activity pIC50” value is recorded as less than 5.
Taken in the same sequence, the figures for `O=C(Nc1ccc(N2CCN(S(=O)(=O)c3ccc4ccccc4c3)CC2)cc1)c1ccc[nH]c1=O` [Compound 87] were more than 10000 nM and less than 5.
On the same counts, the results for `O=C(NO)c1ccc(C(=O)N2CCN(S(=O)(=O)c3ccc4ccccc4c3)CC2)cc1` [Compound 89] are 6070 nM and 6.423.
With `CC(C)(C)c1ccc(S(=O)(=O)N2CCN(c3ncc(C(=O)NO)cn3)CC2)cc1` [Compound 92], the IC50 in series [1] was 723 nM. Moreover, in series [2], the “Enzyme activity pIC50” value is 7.876.
Consider `O=C(NO)c1cnc(N2CCN(S(=O)(=O)c3ccc4c(Cl)cccc4c3)CC2)nc1` [Compound 97], for which, in series [1], the IC50 is 125 nM. Further, the “Enzyme activity pIC50” value in series [2] worked out at 7.938.
With `COc1ccc(-c2ccc(S(=O)(=O)N3CCN(c4ncc(C(=O)NO)cn4)CC3)cc2)cc1OC` [Compound 101], the IC50 in series [1] was 101 nM. In series [2], the “Enzyme activity pIC50” value amounted to 6.671.
On the same counts, the results for `O=C(NO)c1cnc(N2CCN(S(=O)(=O)c3ccc(-c4ccsc4)cc3)CC2)nc1` [Compound 104] are 58.5 nM and 8.152.
Taken in the same sequence, the figures for `O=C(NO)c1cnc(N2CCN(S(=O)(=O)c3ccc4ccccc4c3)CC2)nc1N1CCN(S(=O)(=O)c2ccc3ccccc3c2)CC1` [Compound 117] were 1740 nM and less than 5.
For the molecule `O=C(NO)c1cnc(N2CCN(S(=O)(=O)c3ccc(-c4ccc5[nH]ccc5c4)cc3)CC2)nc1` [Compound 132], the IC50 in series [1] is 461 nM. Also, the “Enzyme activity pIC50” value in series [2] came to 7.162.
On the same counts, the results for `O=C(NO)c1cnc(N2CCN(S(=O)(=O)c3ccc(-c4ccc(CO)cc4)cc3)CC2)nc1` [Compound 139] are 55.2 nM and 7.612.
Taken in the same sequence, the figures for `Nc1ccc(-c2ccc(S(=O)(=O)N3CCN(c4ncc(C(=O)NO)cn4)CC3)cc2)cc1` [Compound 140] were 99.8 nM and 7.739.
With `O=C(NO)c1cnc(N2CCCN(S(=O)(=O)c3ccc4ccccc4c3)CC2)nc1` [Compound 141], in series [1], the IC50 was 991 nM. Further, the “Enzyme activity pIC50” value in series [2] is listed as 7.125.
With `CN(C)CCN(C)Cc1sccc1-c1ccc(S(=O)(=O)N2CCN(c3ncc(C(=O)NO)cn3)CC2)cc1` [Compound 146], the IC50 in series [1] is 119 nM. In series [2], the “Enzyme activity pIC50” value was found to be 8.565.
On the same counts, the results for `O=C(NO)c1cnc(N2CCN(S(=O)(=O)c3ccc(-c4ccccc4OCCN4CCOCC4)cc3)CC2)nc1` [Compound 153] are 275 nM and 8.7.
On the same counts, the results for `O=C(NO)c1cnc(N2CCN(S(=O)(=O)c3ccc(-c4ccc(OCCN5CCOCC5)cc4)cc3)CC2)nc1` [Compound 155] are 87.1 nM and 7.939.
Taken in the same sequence, the figures for `CN(C)CCCOc1ccc(-c2ccc(S(=O)(=O)N3CCN(c4ncc(C(=O)NO)cn4)CC3)cc2)cc1` [Compound 156] were 30 nM and 8.568.
On to `O=C(NO)c1cnc(N2CCN(S(=O)(=O)c3ccc(-c4ccc(CN5CCOCC5)cc4)cc3)CC2)nc1` [Compound 162], for which, in series [1], the IC50 is 117 nM and the “Cellular activity pIC50” value is 7.039.
As to `CN(C)Cc1ccc(-c2ccc(S(=O)(=O)N3CCN(c4ncc(C(=O)NO)cn4)CC3)cc2)cc1` [Compound 163], in series [1], the IC50 was 42.7 nM. The “Enzyme activity pIC50” value in series [2] is 8.553.
In the case of `O=C(NO)c1cnc(N2CCN(S(=O)(=O)c3ccc(-c4cc(C(F)(F)F)cc(C(F)(F)F)c4)cc3)CC2)nc1` [Compound 180], the IC50 in series [1] is more than 10000 nM. In addition, the “Enzyme activity pIC50” value in series [2] is less than 5.
